Values after ≈ are worked out from the molar mass of the structure shown. Read-outs that look alike come from different tables or passages of the source.
Assays:
Ent. cloacae A-9656 = experiment: MIC, tube dilution, Enterobacter cloacae A9656; type: cell-based; settings: overnight 37° C., read-out: Minimum Inhibitory Concentration (M.I.C.)
Description: (§1) Representative compounds of the present invention were subjected to in vitro antibiotic screening against a variety of microorganisms.

Str. pyogenes A-9604 = experiment: MIC, tube dilution, Streptococcus pyogenes A9604; type: cell-based; settings: Streptococcus pyogenes, A9604, Str. pyogenes A9604; overnight 37° C., Nutrient Broth; read-out: Minimum Inhibitory Concentration (M.I.C.)
Description: as §1

E. coli A-15119 = experiment: MIC, tube dilution, Escherichia coli A15119; type: cell-based; settings: Escherichia coli, A15119, E. coli A15119; overnight 37° C.; read-out: Minimum Inhibitory Concentration (M.I.C.)
Description: as §1

Pr. mirabilis A-9900 = experiment: MIC, tube dilution, Proteus mirabilis A9900; type: cell-based; settings: Proteus mirabilis, A9900, Proteus mirabilis A9900; overnight 37° C.; read-out: Minimum Inhibitory Concentration (M.I.C.)
Description: as §1

E. coli A-20341-1 = experiment: MIC, tube dilution, Escherichia coli A20341-1; type: cell-based
Description: as §1

K. pneumoniae A-15130 = experiment: MIC, tube dilution, Klebsiella pneumoniae A15130; type: cell-based; settings: Klebsiella pneumoniae, A15130, K. pneumoniae A15130; overnight 37° C.; read-out: Minimum Inhibitory Concentration (M.I.C.)
Description: as §1

[1] = tested on: Staph. aureus A-9537 and 50% serum; experiment: MIC, tube dilution, Staph. aureus A9537 + 50% serum; type: cell-based, Staphylococcus aureus; settings: Staphylococcus aureus, overnight 37° C., read-out: Minimum Inhibitory Concentration (M.I.C.)
Description: as §1

[2] = stability of isolated product (light, handling); type: physicochemical
Str. faecalis A-20688 = experiment: MIC, tube dilution, Streptococcus faecalis A20688; type: cell-based; settings: Enterococcus faecalis, A20688, Str. faecalis A20688; overnight 37° C.; read-out: Minimum Inhibitory Concentration (M.I.C.)
Description: as §1

Ser. marcescens A-20019 = experiment: MIC, tube dilution, Serratia marcescens A20019; type: cell-based; settings: Serratia marcescens, A20019, Serratia marcescens A20019; overnight 37° C.; read-out: Minimum Inhibitory Concentration (M.I.C.)
Description: as §1

[3] = tested on: Klebsiella species A20468; experiment: MIC, tube dilution, Klebsiella species A20468; type: cell-based; settings: Klebsiella species (K. pneumoniae) A20468; overnight 37° C.; read-out: Minimum Inhibitory Concentration (M.I.C.)
Description: as §1

[4] = tested on: Staph. aureus (Pen-Res) A-9606; experiment: MIC, tube dilution, Staphylococcus aureus A9606 (Pen-Res); type: cell-based; settings: Staphylococcus aureus, Staph. aureus A9606 (Pen-Res); overnight 37° C.; read-out: Minimum Inhibitory Concentration (M.I.C.)
Description: as §1

Pr. morganii A-15153 = experiment: MIC, tube dilution, Proteus morganii A15153; type: cell-based; settings: Morganella morganii, A15153, Proteus morganii A15153; overnight 37° C.; read-out: Minimum Inhibitory Concentration (M.I.C.)
Description: as §1

Ps. aeruginosa A-9843A = experiment: MIC, tube dilution, Pseudomonas aeruginosa A9843A; type: cell-based; settings: Pseudomonas aeruginosa, A9843A, read-out: Minimum Inhibitory Concentration (M.I.C.), Pseudomonas aeruginosa A9843A; overnight 37° C.
Description: as §1

Staph. aureus A-9537 = experiment: MIC, tube dilution, Staphylococcus aureus A9537; type: cell-based; settings: Staphylococcus aureus, A9537, Staph. aureus A9537; overnight 37° C., Nutrient Broth; read-out: Minimum Inhibitory Concentration (M.I.C.)
Description: as §1

Proteus rettgeri A21203 = experiment: MIC, tube dilution, Proteus rettgeri A21203; type: cell-based; settings: Providencia rettgeri, overnight 37° C., read-out: Minimum Inhibitory Concentration (M.I.C.)
Description: as §1

Str. pneumoniae A-9585 = experiment: MIC, tube dilution, Streptococcus pneumoniae A9585; type: cell-based; settings: Streptococcus pneumoniae, A9585, Str. pneumoniae A9585; overnight 37° C., Nutrient Broth; read-out: Minimum Inhibitory Concentration (M.I.C.)
Description: as §1

Ent. cloacae A-9659 = experiment: MIC, tube dilution, Enterobacter cloacae A9659; type: cell-based; settings: Enterobacter cloacae, A9659, Enterobacter cloacae A9659; overnight 37° C.; read-out: Minimum Inhibitory Concentration (M.I.C.)
Description: as §1

Proteus vulgaris A21559 = experiment: MIC, tube dilution, Proteus vulgaris A21559; type: cell-based; settings: Proteus vulgaris, A21559, Proteus vulgaris A21559; overnight 37° C.; read-out: Minimum Inhibitory Concentration (M.I.C.)
Description: as §1

[5] = tested on: Staph. aureus (Meth-Res) A-15097; experiment: MIC, tube dilution, Staphylococcus aureus A15097 (Meth-Res); type: cell-based; settings: Staphylococcus aureus, overnight 37° C.
Description: as §1

Ps. aeruginosa A-21213 = experiment: MIC, tube dilution, Pseudomonas aeruginosa A21213; type: cell-based; settings: overnight 37° C., read-out: Minimum Inhibitory Concentration (M.I.C.)
Description: as §1

S. aureus A9606 = experiment: In vivo protection of mice, lethal infection with S. aureus A9606; settings: Staphylococcus aureus, IM, 2 treatments, 8 × 10^8 organisms, read-out: PD50
Procedure: (§2) Representative compounds of the present invention were also tested in vivo in mice and their PD50 (dose of compound in mg/kg required to protect 50% of the treated mice against an otherwise lethal infection of a micro-organism) values determined with respect to the test organisms shown below.

S. aureus A9537 = experiment: In vivo protection of mice, lethal infection with S. aureus A9537; settings: IM, 2 treatments; for ED50: Staphylococcus aureus, A9537, im, read-out: PD50
Procedure: as §2

[6] = tested on: Providencia stuartii A21205; experiment: MIC, tube dilution, Providencia stuartii (Pr. rettgeri) A21205; type: cell-based; settings: Providencia stuartii, A21205, Providencia stuartii (Pr. rettgeri) A21205; overnight 37° C.; read-out: Minimum Inhibitory Concentration (M.I.C.)
Description: as §1

S. pyogenes A9604 = experiment: In vivo protection of mice, lethal infection with S. pyogenes A9604; settings: Streptococcus pyogenes, A9604, im, 2 treatments, read-out: PD50
Procedure: as §2

S. pneumoniae A9585 = experiment: In vivo protection of mice, lethal infection with S. pneumoniae A9585; settings: Streptococcus pneumoniae, A9585, im, 2 treatments, read-out: PD50
Procedure: as §2

K. pneumoniae A15130 = experiment: In vivo protection of mice, lethal infection with K. pneumoniae A15130; settings: Klebsiella pneumoniae, IM, 2 treatments, 1.2 × 10^3 organisms, read-out: PD50
Procedure: as §2

[7] = tested on: Hemophilus influenzae A9833; experiment: MIC, tube dilution, Hemophilus influenzae A9833; type: cell-based; settings: Haemophilus influenzae, A9833, read-out: Minimum Inhibitory Concentration (M.I.C.)
Description: as §1

[8] = Mouse blood levels after intramuscular administration; type: in vivo; settings: average of 6 mice, read-out: Mouse blood level
Procedure: Mouse blood levels after intramuscular administration of representative compounds of the present invention were determined and are reported in the table below.

[9] = Escherichia coli, A203411, E. coli A20341-1; overnight 37° C.; read-out: Minimum Inhibitory Concentration (M.I.C.)

SMILES	MIC (Str. pyogenes A-9604) [mg/L]	MIC (E. coli A-15119) [mg/L]	MIC (Pr. mirabilis A-9900) [mg/L]	MIC (E. coli A-20341-1; [9]) [mg/L]	MIC (K. pneumoniae A-15130) [mg/L]	MIC [1] [mg/L]	MIC (Str. faecalis A-20688) [mg/L]	MIC (Ser. marcescens A-20019) [mg/L]	MIC [3] [mg/L]	MIC [4] [mg/L]	MIC (Pr. morganii A-15153) [mg/L]	MIC (Ps. aeruginosa A-9843A) [mg/L]	MIC (Staph. aureus A-9537) [mg/L]	MIC (Str. pneumoniae A-9585) [mg/L]	MIC (Ent. cloacae A-9659) [mg/L]	MIC (Ps. aeruginosa A-21213; Pseudomonas aeruginosa A21213) [mg/L]	further results
NC1CC1C1=C(C(=O)O)N2C(=O)CC2S1 (stereo not drawn) [Example 99, 2-(trans-2-Aminocyclopropyl)-penem-3-carboxylic Acid]	1 (≈ 4.42 µM)	8 (≈ 35.4 µM)	8 (≈ 35.4 µM)	63 (≈ 278 µM)	32 (≈ 141 µM)	16	63 (≈ 278 µM)	16 (≈ 70.7 µM)	> 63	4 (≈ 17.7 µM)	16 (≈ 70.7 µM)	> 63	1 (≈ 4.42 µM)	1 (≈ 4.42 µM)	16 (≈ 70.7 µM)	–	MIC (Ent. cloacae A-9656; Enterobacter cloacae, A9656, Enterobacter cloacae A9656): 16 mg/L (≈ 70.7 µM); stability [2]: suspected to be very light sensitive; MIC (Proteus rettgeri A21203; A21203, Proteus rettgeri A21203): 8 mg/L (≈ 35.4 µM); MIC (Proteus vulgaris A21559): 16 mg/L (≈ 70.7 µM); MIC ([5]; Staph. aureus A15097 (Meth-Res), read-out: Minimum Inhibitory Concentration (M.I.C.)): 32 mg/L (≈ 141 µM); MIC (Ps. aeruginosa A-21213; Pseudomonas aeruginosa, A21213, Pseudomonas aeruginosa A21213): > 63 mg/L
CC1=C(C(=O)O)N2C(=O)C[C@H]2S1 [Preparation 2,3, 2-Methylpenem-3-carboxylic Acid]	–	–	–	16 (≈ 86.4 µM)	–	–	32 (≈ 173 µM)	–	> 125	1 (≈ 5.4 µM)	–	–	–	–	–	> 125	ED50 (S. aureus A9606): > 50 mg/kg; PD50 (S. aureus A9537; 1.1 × 10^6 organisms, listed as Prep. 2,3): 22 mg/kg/treatment; ED50 (S. aureus A9537; 1.1 × 10^6 organisms): 13 mg/kg; ED50 (S. aureus A9537; 7.8 × 10^5 organisms): 13 mg/kg; MIC [6]: 4 mg/L (≈ 21.6 µM); ED50 (S. pyogenes A9604; 1.2 × 10^3 organisms): > 50 mg/kg; ED50 (S. pyogenes A9604; 8 × 10^3 organisms): > 12.5 mg/kg; ED50 (S. pneumoniae A9585; 3 × 10^4 organisms): > 12.5 mg/kg; ED50 (S. pneumoniae A9585; 3.4 × 10^4 organisms): > 50 mg/kg; ED50 (K. pneumoniae A15130): > 400 mg/kg
NCCC1=C(C(=O)O)N2C(=O)CC2S1 (stereo not shown) [Example 24, 2-Aminoethylpenem-3-carboxylic Acid]	2 (≈ 9.34 µM)	32 (≈ 149 µM)	63 (≈ 294 µM)	–	> 125	16	63 (≈ 294 µM)	63 (≈ 294 µM)	125 (≈ 583 µM)	8 (≈ 37.3 µM)	125 (≈ 583 µM)	125 (≈ 583 µM)	4 (≈ 18.7 µM)	2 (≈ 9.34 µM)	63 (≈ 294 µM)	> 125	ED50 (S. aureus A9537; 1 × 10^6 organisms): 0.63 mg/kg; MIC (Ent. cloacae A-9656; Enterobacter cloacae A9656): 125 mg/L (≈ 583 µM); MIC [7]: > 125 mg/L; MIC (E. coli A-20341-1; Escherichia coli, A203411; E. coli A20341-1; overnight 37° C.; read-out: Minimum Inhibitory Concentration (M.I.C.)): 125 mg/L (≈ 583 µM); concentration at 10 min ([8]; 10 minutes after IM 40 mg/kg): 51.4 µg/mL; concentration at 20 min ([8]; 20 minutes after IM 40 mg/kg): 37.1 µg/mL; concentration at 0.5 h ([8]; 30 minutes after IM 40 mg/kg): 21.8 µg/mL; concentration at 0.75 h ([8]; 45 minutes after IM 40 mg/kg): 9.4 µg/mL; concentration at 1 h ([8]; 60 minutes after IM 40 mg/kg): 5 µg/mL; concentration at 1.5 h ([8]; 90 minutes after IM 40 mg/kg): < 3.1 µg/mL; concentration at 2 h ([8]; 120 minutes after IM 40 mg/kg): < 3.1 µg/mL; MIC (Proteus rettgeri A21203; Proteus rettgeri A21203): 125 mg/L (≈ 583 µM); MIC ([5]; read-out: Minimum Inhibitory Concentration (M.I.C.), Staph. aureus A15097 (Meth-Res)): > 125 mg/L

— patent US4272437A, “Antibacterial agents, and 4-thio azetidinone intermediates” (priority 1979, dated 1981)
